Data set [1] concerns CCRF S-180. Nature of the data set: Antitumor activity against S180 cells implanted in mouse at 30 mg/kg, ip. In kind it is functional. The conditions noted are these: route intraperitoneal; for inhibition in vivo at 30 mg/kg: Mus musculus, CCRF S-180, ip.
Data set [2] concerns H22. Put plainly: Antitumor activity against H22 cells implanted in mouse at 30 mg/kg, ip. The note with it: route intraperitoneal; for inhibition in vivo at 30 mg/kg: Mus musculus, H22, ip. Format: functional.
Data set [3] can be described thus: Toxicity in ip dosed mouse. The note with it: in vivo. In kind it is organism-based.
Data set [4] concerns CCRF S-180. Nature of the data set: Antitumor activity against S180 cells implanted in mouse at 15 mg/kg, ip. The conditions noted are these: CCRF S-180, ip, route intraperitoneal. Format: functional.
Data set [5] relates to CCRF S-180. Nature of the data set: Antitumor activity against S180 cells implanted in mouse at 60 mg/kg, ip. Format: functional. The note with it: CCRF S-180, ip, route intraperitoneal.
For data set [6], the system named is H22. Nature of the data set: Antitumor activity against H22 cells implanted in mouse at 15 mg/kg, ip. Format: functional. The conditions noted are these: route intraperitoneal.
Data set [7] has as its system H22. Nature of the data set: Antitumor activity against H22 cells implanted in mouse at 60 mg/kg, ip. In kind it is functional. The conditions noted are these: route intraperitoneal.

As for `C[N+]1(C)CCN(P2(=O)NCCCO2)CC1` (centres undefined), the inhibition in vivo at 30 mg/kg came to 33.5% in data set [1] and 28.8% in data set [2].
Taken in the same sequence, the figures for `O=P1(N2CC[N+]3(CCCC3)CC2)NCCCO1` (centres undefined) were 26.7% and 17.3%.
Taken in the same sequence, the figures for `O=P1(N2CC[N+]3(CCOCC3)CC2)NCCCO1` (centres undefined) were -27.6% and 32.5%.
For the compound `O=P1(N(CCCl)CCCl)NCCCO1` (centres undefined) [CYCLOPHOSPHAMIDE ANHYDROUS], the inhibition in vivo at 30 mg/kg in data set [1] worked out at 72.9%; in data set [2] it was 72%. The LD50 in data set [3] worked out at 387 mg/kg.
As for `CN1CC[N+]2(CC1)CCN(P1(=O)NCCCO1)CC2.[I-]` (centres undefined), the Inhibition in data set [1] worked out at 29.41%; in data set [2] it was 16.19%.
As for `O=P1(N2CC[N+]3(CCCCC3)CC2)NCCCO1` (centres undefined), the inhibition in vivo at 30 mg/kg was 39.9% in data set [1] and 12.8% in data set [2].
Turning to `O=P1(N2CC[N+]3(CCCCCC3)CC2)NCCCO1.[Cl-]` (centres undefined), the inhibition in vivo at 30 mg/kg in data set [1] was determined as 36%; in data set [2], 48.4%. Also, the results for the inhibition in vivo at 15 mg/kg in data set [4] and in data set [6] were 38.2% and 17.2%, respectively. Moreover, the inhibition in vivo at 60 mg/kg is 53.4% in data set [5] and 51.3% in data set [7]. Also, the LD50 in data set [3] was determined as 239 mg/kg.
Turning to `CC1CC[N+]2(CC1)CCN(P1(=O)NCCCO1)CC2` (centres undefined), the results for the inhibition in vivo at 30 mg/kg in data set [1] and in data set [2] were -13.3% and 32.2%, respectively.
Turning to `CN1CC[N+]2(CC1)CCN(P1(=O)NCCCO1)CC2.[Br-]` (centres undefined), the Inhibition in data set [1] worked out at 18.72%; in data set [2], 11.6%.
In the case of `O=P1(N2CC[N+]3(CCN(Cc4ccccc4)CC3)CC2)NCCCO1` (centres undefined), the inhibition in vivo at 30 mg/kg in data set [1] was found to be 33.7%.
Still for that read-out and setting: the value for `O=P1(N2CC[N+]3(CCc4ccccc4C3)CC2)NCCCO1` (centres undefined) was 18.9%.
On to `CN1CC[N+]2(CC1)CCN(P1(=O)NCCCO1)CC2.[Cl-]` (centres undefined), for which the Inhibition in data set [1] came to 42.31%; in data set [2], 41.66%. For the same compound, the figures for the inhibition in vivo at 15 mg/kg in data set [4] and in data set [6] were 37.5% and 24.4%, respectively. The inhibition in vivo at 60 mg/kg is 55.2% in data set [5] and 38% in data set [7]. This compound also showed an LD50 in data set [3] of 1200 mg/kg.
As for `C[N+]1(Cc2ccccc2)CCN(P2(=O)NCCCO2)CC1` (centres undefined), the inhibition in vivo at 30 mg/kg in data set [1] was -3.28%; in data set [2], -6.63%.
In the case of `CC1C[N+]2(CCN(P3(=O)NCCCO3)CC2)CC(C)O1` (centres undefined), the inhibition in vivo at 30 mg/kg stood at 46.6% in data set [1] and 20.6% in data set [2].
The matching figures for `O=P1(N2CC[N+]3(CCNCC3)CC2)NCCCO1` (centres undefined): 10.7% and 8.64%.

For the origin of these results see ChEMBL document CHEMBL1138959, “Novel class of cyclophosphamide prodrug: cyclophosphamide spiropiperaziniums (CPSP)” (Bioorg Med Chem Lett, 2006).
